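Tested at 5 concentrations; 48 h exposure; 96-well plates; endpoints linearly interpolated, else capped at highest concentration. GI50 is the concentration that inhibits growth by half.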 Calls of active or inactive are those of the source. Rule as the data show it: active = GI50 up to about 1.1 µM and inactive = higher. Where a SMILES comes first, the peptide text is derived from it. Square brackets hold non-standard residues; d marks the D form. Peptide text beside a SMILES is read from it. [ ]: non-standard residue; d: D form. The star is where a group is joined. * marks the point of attachment. ξ: configuration not given here. ξW = NC(Cc1c[nH]c2ccccc12)C(=O)O; NMeF = CN[CH](Cc1ccccc1)C(=O)O; ξNMe2Val = CC(C)C(C(=O)*)N(C)C; X29 = O=C(O)[C@H]1CCC[C@H]1N*; NMeV = CN[CH](C(=O)O)C(C)C; ξF = NC(Cc1ccccc1)C(=O)O; Boc = CC(C)(C)OC(=O)*; ξK = NCCCCC(N)C(=O)O; ξT = CC(O)C(N)C(=O)O; OtBu = CC(C)(C)O*; tBu = CC(C)(C)*
Assays:
Assay in all cases: DTP human tumour cell line panel, 48 h
[1] = system: OVCAR-8
[2] = system: RPMI-8226
[3] = system: KM12
[4] = system: RXF 393
[5] = system: HOP-92
[6] = system: COLO 205
[7] = system: UACC-257
[8] = system: SW-620
[9] = system: ACHN
[10] = system: PC-3
[11] = system: SK-MEL-2
[12] = system: SNB-75
[13] = system: HCC 2998
[14] = system: UO-31
[15] = system: HCT-116
[16] = system: Malme-3M
[17] = system: OVCAR-5
[18] = system: CCRF-CEM
[19] = system: BT-549

SMILES	GI50 [1]	GI50 [2]	GI50 [3]	GI50 [4]	GI50 [5]	GI50 [6]	GI50 [7]	GI50 [8]	GI50 [9]	GI50 [10]	GI50 [11]	GI50 [12]	GI50 [13]	GI50 [14]	GI50 [15]	GI50 [16]	GI50 [17]	GI50 [18]	GI50 [19]
O=C(CSCC(=O)N/N=C/c1cccc(O)c1)N/N=C/c1cccc(O)c1	> 100 µM (inactive)	> 100 µM (inactive)	> 100 µM (inactive)	> 100 µM (inactive)	> 100 µM (inactive)	> 100 µM (inactive)	> 100 µM (inactive)	> 100 µM (inactive)	> 100 µM (inactive)	> 100 µM (inactive)	> 100 µM (inactive)	> 100 µM (inactive)	> 100 µM (inactive)	> 100 µM (inactive)	> 100 µM (inactive)	> 100 µM (inactive)	> 100 µM (inactive)	–	–
CCCC(=O)Nc1cc([N+](=O)[O-])c([N+](=O)[O-])cc1OC	16.3 µM (inactive)	19.8 µM (inactive)	12.4 µM (inactive)	–	–	15.5 µM (inactive)	18.3 µM (inactive)	22.4 µM (inactive)	13.5 µM (inactive)	27.2 µM (inactive)	16.5 µM (inactive)	16.7 µM (inactive)	–	1.75 µM (inactive)	17.1 µM (inactive)	–	32.5 µM (inactive)	14.1 µM (inactive)	17.3 µM (inactive)
CCCCCCNc1n[nH]c(=O)c2c1nnn2Cc1ccccc1	> 100 µM (inactive)	> 100 µM (inactive)	> 100 µM (inactive)	–	86.9 µM (inactive)	> 100 µM (inactive)	> 100 µM (inactive)	–	> 100 µM (inactive)	> 100 µM (inactive)	> 100 µM (inactive)	–	> 100 µM (inactive)	> 100 µM (inactive)	> 100 µM (inactive)	> 100 µM (inactive)	> 100 µM (inactive)	> 100 µM (inactive)	> 100 µM (inactive)
Cc1cc(=O)c2cc(/N=C/c3ccc([N+](=O)[O-])o3)ccc2o1	–	35.5 µM (inactive)	> 100 µM (inactive)	–	> 100 µM (inactive)	> 100 µM (inactive)	28.1 µM (inactive)	63.5 µM (inactive)	91.6 µM (inactive)	–	> 100 µM (inactive)	> 100 µM (inactive)	> 100 µM (inactive)	> 100 µM (inactive)	32.5 µM (inactive)	30 µM (inactive)	> 100 µM (inactive)	41.1 µM (inactive)	72.6 µM (inactive)
CN1CCN(C(=S)N(C(=O)c2ccco2)c2ccccc2)CC1	> 100 µM (inactive)	> 100 µM (inactive)	> 100 µM (inactive)	> 100 µM (inactive)	> 100 µM (inactive)	> 100 µM (inactive)	> 100 µM (inactive)	> 100 µM (inactive)	> 100 µM (inactive)	–	> 100 µM (inactive)	> 100 µM (inactive)	> 100 µM (inactive)	> 100 µM (inactive)	–	> 100 µM (inactive)	> 100 µM (inactive)	> 100 µM (inactive)	> 100 µM (inactive)
O=C(ON=C1c2ccccc2C(Br)C(Br)c2ccccc21)c1cc([N+](=O)[O-])cc([N+](=O)[O-])c1 (stereo not given)	17.3 µM (inactive)	6.81 µM (inactive)	19.4 µM (inactive)	19.6 µM (inactive)	16 µM (inactive)	20.3 µM (inactive)	18 µM (inactive)	18.7 µM (inactive)	21.3 µM (inactive)	28.5 µM (inactive)	31.6 µM (inactive)	13.9 µM (inactive)	29.4 µM (inactive)	–	18.5 µM (inactive)	18.5 µM (inactive)	22.4 µM (inactive)	0.787 µM (active)	–
CC(OC(C)(C)C)C(NC(=O)C(CCCCNC(=O)OC(C)(C)C)NC(=O)C(Cc1c[nH]c2ccccc12)NC(=O)C(N)Cc1ccccc1)C(=O)NC(Cc1ccccc1)C(=O)N[C@@H]1CCC[C@@H]1C(=O)O (stereo not given in full) (H-[ξF][ξW][ξK](Boc)[ξT](tBu)[ξF]-X29)	> 100 µM (inactive)	35.2 µM (inactive)	19.4 µM (inactive)	> 100 µM (inactive)	30.3 µM (inactive)	27.4 µM (inactive)	> 100 µM (inactive)	47.1 µM (inactive)	> 100 µM (inactive)	45.6 µM (inactive)	16.7 µM (inactive)	59.6 µM (inactive)	19.7 µM (inactive)	> 100 µM (inactive)	39.5 µM (inactive)	40 µM (inactive)	23.2 µM (inactive)	36.2 µM (inactive)	–
CC(C)C(C(=O)N(C)C(Cc1ccccc1)C(=O)N(C)C(C(=O)N(C)C(C(=O)N1CCCC1C(=O)OC(C)(C)C)C(C)C)C(C)C)N(C)C (stereo not given) (ξNMe2Val-[NMeF][NMeV][NMeV]P-OtBu; configuration not given here)	97.3 µM (inactive)	36.8 µM (inactive)	40.6 µM (inactive)	–	–	35.2 µM (inactive)	32.8 µM (inactive)	43 µM (inactive)	65 µM (inactive)	–	–	–	22.8 µM (inactive)	86.7 µM (inactive)	33.6 µM (inactive)	> 10 µM (inactive)	–	31.6 µM (inactive)	–
O=c1[nH]c(=O)n(COCCO)cc1-c1ccccc1	> 100 µM (inactive)	> 100 µM (inactive)	> 100 µM (inactive)	–	> 100 µM (inactive)	> 100 µM (inactive)	> 100 µM (inactive)	> 100 µM (inactive)	> 100 µM (inactive)	> 100 µM (inactive)	> 100 µM (inactive)	–	> 100 µM (inactive)	> 100 µM (inactive)	> 100 µM (inactive)	> 100 µM (inactive)	> 100 µM (inactive)	> 100 µM (inactive)	–
O=[N+]([O-])c1ccc2[nH]nc(OCc3ccccc3Cl)c2c1	27 µM (inactive)	> 100 µM (inactive)	91.4 µM (inactive)	18.2 µM (inactive)	20.5 µM (inactive)	> 100 µM (inactive)	> 100 µM (inactive)	> 10 µM (inactive)	19.8 µM (inactive)	> 100 µM (inactive)	27.2 µM (inactive)	81.5 µM (inactive)	59.6 µM (inactive)	> 10 µM (inactive)	27.4 µM (inactive)	98.9 µM (inactive)	52.6 µM (inactive)	> 100 µM (inactive)	–
Cc1ccccc1NC(=O)Cc1csc(N/N=C2\C(=O)Nc3ccccc32)n1	16.6 µM (inactive)	31 µM (inactive)	33.3 µM (inactive)	28.8 µM (inactive)	30.2 µM (inactive)	> 100 µM (inactive)	91 µM (inactive)	1 µM (active)	36.8 µM (inactive)	18.6 µM (inactive)	44.6 µM (inactive)	55.1 µM (inactive)	–	40.8 µM (inactive)	43.7 µM (inactive)	32.4 µM (inactive)	41.7 µM (inactive)	46 µM (inactive)	–
O=C(NCCCN(CCCCN(CCCNC(=O)c1cc(S(=O)(=O)O)cc(O)c1O)C(=O)c1cc(S(=O)(=O)O)cc(O)c1O)C(=O)c1cc(S(=O)(=O)O)cc(O)c1O)c1cc(S(=O)(=O)O)cc(O)c1O	> 100 µM (inactive)	–	> 100 µM (inactive)	–	> 100 µM (inactive)	> 100 µM (inactive)	> 100 µM (inactive)	> 100 µM (inactive)	> 100 µM (inactive)	> 100 µM (inactive)	> 100 µM (inactive)	> 100 µM (inactive)	> 100 µM (inactive)	> 100 µM (inactive)	> 100 µM (inactive)	> 100 µM (inactive)	–	> 100 µM (inactive)	> 100 µM (inactive)
CC12CCC(CC1(Cl)Cl)C2 (stereo not given)	> 100 µM (inactive)	> 100 µM (inactive)	> 100 µM (inactive)	–	> 100 µM (inactive)	> 100 µM (inactive)	> 100 µM (inactive)	> 100 µM (inactive)	> 100 µM (inactive)	> 100 µM (inactive)	> 100 µM (inactive)	> 100 µM (inactive)	–	> 100 µM (inactive)	–	> 100 µM (inactive)	> 100 µM (inactive)	> 100 µM (inactive)	> 100 µM (inactive)
CCOC(=O)CCC(NC(=O)c1ccc(CNc2nc3ccccc3nc2C(=O)OCC)cc1)C(=O)OCC (stereo not given)	> 100 µM (inactive)	> 100 µM (inactive)	> 100 µM (inactive)	–	> 100 µM (inactive)	> 100 µM (inactive)	–	> 100 µM (inactive)	> 100 µM (inactive)	> 100 µM (inactive)	> 100 µM (inactive)	> 100 µM (inactive)	–	44.1 µM (inactive)	> 100 µM (inactive)	77.3 µM (inactive)	> 100 µM (inactive)	> 100 µM (inactive)	–
O=c1c2ccccc2n2c(-c3ccccc3O)nnc2n1-c1ccccc1	> 100 µM (inactive)	–	> 100 µM (inactive)	> 100 µM (inactive)	> 100 µM (inactive)	> 100 µM (inactive)	> 100 µM (inactive)	> 100 µM (inactive)	> 100 µM (inactive)	> 100 µM (inactive)	> 100 µM (inactive)	> 100 µM (inactive)	> 100 µM (inactive)	2.76 µM (inactive)	> 100 µM (inactive)	> 100 µM (inactive)	> 100 µM (inactive)	67.3 µM (inactive)	–
C1CCC(N=C2N(C3CCCCC3)C(=NC3CCCCC3)N2C2CCCCC2)CC1	> 100 µM (inactive)	> 100 µM (inactive)	> 100 µM (inactive)	> 100 µM (inactive)	30.3 µM (inactive)	> 100 µM (inactive)	> 100 µM (inactive)	> 100 µM (inactive)	> 100 µM (inactive)	–	> 100 µM (inactive)	20.9 µM (inactive)	> 100 µM (inactive)	> 100 µM (inactive)	> 100 µM (inactive)	> 100 µM (inactive)	> 100 µM (inactive)	> 100 µM (inactive)	–

— ChEMBL document CHEMBL1201862, “PubChem BioAssay data set” (2004)
